Patent US20260166122A1, “USE OF MICROPEPTIDE MIAC” (NANJING ANJI BIOTECHNOLOGY CO., LTD, priority 2023, published 2026)
Read-outs that look alike come from different tables or passages of the source. Marks after values point to notes of the source that are not given here. Ends that are not written are not given here.

Key:
[1] = tested on: human non-small cell lung cancer cells NCI-H1650; format: cell-based; conditions: 72 h
[2] = tested on: human cervical cancer cells Hela; format: cell-based; conditions: 72 h
Experimental: (§1) Human pancreatic cancer, hepatocellular carcinoma, colorectal cancer, ovarian cancer, cervical cancer, bladder cancer, melanoma, glioblastoma, neuroblastoma, glioma, osteosarcoma, myeloma, lymphoma, hematologic malignancies, and cholangiocarcinoma cells were cultured in an incubator at 37° C. with 5% CO2 until the density reached 90%, then digested and collected with trypsin, resuspended in a culture medium, and counted under a microscope; the cell concentration was adjusted to about 1.0×10^5 cells/mL; and the cell suspension was inoculated into a 96-well plate, with 100 μL per well, and incubated overnight in an incubator at 37° C. with 5% CO2. After the cells were completely attached to the wall, 100 μL of micropeptides MIAC with concentrations of 50 μM, 100 μM and 200 μM were added to form an administration group; and a culture medium without any medicament was used as a negative control group. After continuing incubation for 72 h, 100 μL of CCK8 was added to each well of the 96-well plate for dissolving. The absorbance OD was measured at a detection wavelength of 450 nm with a microplate reader, and the proliferation inhibition (PI) was calculated using the formula of PI (%)=1-administration group/negative control group. The experiment was repeated 3 times independently, the results were expressed as Mean±SD, and a statistical T test was performed, where *P<0.05 indicated a significant difference and **P<0.01 indicated an extremely significant difference.

[3] = tested on: human cholangiocarcinoma cells QBC939; format: cell-based; conditions: 72 h
Experimental: as §1

[4] = tested on: human myeloma cells ARP-1; format: cell-based; conditions: 72 h
Experimental: as §1

[5] = tested on: human osteosarcoma cells MG-63; format: cell-based; conditions: 72 h
Experimental: as §1

[6] = tested on: human neuroblastoma cells SH-SY5Y; format: cell-based; conditions: 72 h
Experimental: as §1

[7] = tested on: human lymphoma cells Raji; format: cell-based; conditions: 72 h
Experimental: as §1

[8] = tested on: human diffuse large B-cell lymphoma cells WSU-DLCL2; format: cell-based; conditions: 72 h
Experimental: as §1

[9] = tested on: human monocytic leukemia cells Thp-1; format: cell-based; conditions: 72 h
Experimental: as §1

[10] = tested on: human non-small cell lung cancer cells NCI-H1299; format: cell-based; conditions: 72 h
[11] = tested on: prostate cancer Du145 cells; assay: transwell migration inhibition, Du145; format: cell-based, human; conditions: 48 h
Experimental: (§2) Human prostate cancer, cervical cancer, osteosarcoma, ovarian cancer, melanoma, and hepatocellular carcinoma cells were inoculated into transwell chambers, with 100 μL per well; for an administration group, 100 μL of a micropeptide MIAC was added to each of the chambers at a different dose; and no medicament was added to a blank group. Then, 0.6 mL of a complete medium comprising 10% FBS was added to transwell lower chambers to stimulate cell migration, followed by incubation at 37° C. with 5% CO2 for 48 h. The culture medium in the wells was discarded, and the cells were fixed with methanol at room temperature for 30 min, stained with 0.1% crystal violet at room temperature for 10 min, and rinsed thoroughly with clear water; the unmigrated cells in the upper layer were wiped off with a cotton swab; and the migrated cells were observed under a microscope, and four visual fields were selected for photography and counting. The migration inhibition rate (MI) was calculated using the following formula: […]
(§3) where Ntest represents the number of migrated cells in the administration group, and Ncontrol represents the number of migrated cells in the blank control group.

[12] = tested on: human gastric carcinoma cells BGC-803; format: cell-based; conditions: 72 h
[13] = tested on: human esophageal carcinoma cells Eca-109; format: cell-based; conditions: 72 h
[14] = tested on: hepatocellular carcinoma Hep3B cells; assay: transwell migration inhibition, Hep3B; format: cell-based, human; conditions: 48 h
Experimental: as §2, §3

[15] = tested on: ovarian cancer SKOV3 cells; assay: transwell migration inhibition, SKOV3; format: cell-based, human; conditions: 48 h
Experimental: as §2, §3

[16] = tested on: human breast cancer cells MCF-7; format: cell-based; conditions: 72 h
[17] = tested on: human esophageal carcinoma cells CaES-17; format: cell-based; conditions: 72 h

MERAGVPGFSPRRSSVEAKMQSTSCSVRKSSTVTAWPAVVLLLSWGQRRGG [MIAC, micropeptide inhibiting actin cytoskeleton]
OD ([1]; NCI-H1650, 50 μM): 1.127 ± 0.022
OD ([1]; NCI-H1650, 100 μM): 0.955 ± 0.031
OD ([1]; NCI-H1650, 200 μM): 0.779 ± 0.057
OD ([2]; 50 μM): 0.954 ± 0.041**
OD ([2]; 100 μM): 0.801 ± 0.039**
OD ([2]; 200 μM): 0.532 ± 0.066**
OD ([3]; QBC939, 50 μM): 1.13 ± 0.053
OD ([3]; QBC939, 100 μM): 0.757 ± 0.028**
OD ([3]; QBC939, 200 μM): 0.468 ± 0.045**
OD ([4]; ARP-1, 50 μM): 0.985 ± 0.008
OD ([4]; ARP-1, 100 μM): 0.692 ± 0.047**
OD ([4]; ARP-1, 200 μM): 0.433 ± 0.013**
OD ([5]; MG-63, 50 μM): 1.049 ± 0.011**
OD ([5]; MG-63, 100 μM): 0.691 ± 0.033**
OD ([5]; MG-63, 200 μM): 0.365 ± 0.009**
OD ([6]; 50 μM): 1.033 ± 0.022
OD ([6]; 100 μM): 0.822 ± 0.108**
OD ([6]; 200 μM): 0.665 ± 0.011**
OD ([7]; 50 μM): 0.964 ± 0.037
OD ([7]; 100 μM): 0.687 ± 0.019**
OD ([7]; 200 μM): 0.421 ± 0.029**
OD ([8]; WSU-DLCL2, 50 μM): 0.908 ± 0.061
OD ([8]; WSU-DLCL2, 100 μM): 0.684 ± 0.039**
OD ([8]; WSU-DLCL2, 200 μM): 0.264 ± 0.056**
OD ([9]; Thp-1, 50 μM): 1.265 ± 0.059
OD ([9]; Thp-1, 100 μM): 0.841 ± 0.058**
OD ([9]; Thp-1, 200 μM): 0.681 ± 0.045**
OD ([10]; NCI-H1299, 50 μM): 1.090 ± 0.022
OD ([10]; NCI-H1299, 100 μM): 0.754 ± 0.06
OD ([10]; NCI-H1299, 200 μM): 0.467 ± 0.012
Inhibition rate (%) ([11]; Du145, 3.125 μmol/L): 39.23%
Number of migrated cells ([11]; Du145, 3.125 μmol/L): 349.3 ± 98.5
Inhibition rate (%) ([11]; Du145, 6.25 μmol/L): 69.77%
Number of migrated cells ([11]; Du145, 6.25 μmol/L): 173.8 ± 48.8
Inhibition rate (%) ([11]; Du145, 12.5 μmol/L): 82.51%
Number of migrated cells ([11]; Du145, 12.5 μmol/L): 100.5 ± 11.8
Inhibition rate (%) ([11]; Du145, 25 μmol/L): 91.87%
Number of migrated cells ([11]; Du145, 25 μmol/L): 46.8 ± 8.5
Inhibition rate (%) ([11]; Du145, 50 μmol/L): 94.56%
Number of migrated cells ([11]; Du145, 50 μmol/L): 31.3 ± 8.4
OD ([12]; BGC-803, 50 μM): 1.379 ± 0.025
OD ([12]; BGC-803, 100 μM): 0.960 ± 0.059
OD ([12]; BGC-803, 200 μM): 0.715 ± 0.015
OD ([13]; Eca-109, 50 μM): 1.072 ± 0.037
OD ([13]; Eca-109, 100 μM): 0.656 ± 0.045
OD ([13]; Eca-109, 200 μM): 0.394 ± 0.039
Inhibition rate (%) ([14]; 12.5 μmol/L): 66.54%
Number of migrated cells ([14]; 12.5 μmol/L): 110.8 ± 29.3
Inhibition rate (%) ([14]; 25 μmol/L): 65.33%
Number of migrated cells ([14]; 25 μmol/L): 114.8 ± 27.1
Inhibition rate (%) ([14]; 50 μmol/L): 64.95%
Number of migrated cells ([14]; 50 μmol/L): 116.0 ± 26.1
Inhibition rate (%) ([15]; SKOV3, 12.5 μmol/L): 17.17%
Number of migrated cells ([15]; SKOV3, 12.5 μmol/L): 907.3 ± 46.5
Inhibition rate (%) ([15]; SKOV3, 25 μmol/L): 52.28%
Number of migrated cells ([15]; SKOV3, 25 μmol/L): 523.8 ± 35.3
Inhibition rate (%) ([15]; SKOV3, 50 μmol/L): 62.04%
Number of migrated cells ([15]; SKOV3, 50 μmol/L): 415.8 ± 21.7
OD ([16]; MCF-7, 50 μM): 1.281 ± 0.040
OD ([16]; MCF-7, 100 μM): 0.973 ± 0.027
OD ([16]; MCF-7, 200 μM): 0.814 ± 0.047
OD ([17]; CaES-17, 50 μM): 1.168 ± 0.044
OD ([17]; CaES-17, 100 μM): 0.672 ± 0.051
OD ([17]; CaES-17, 200 μM): 0.466 ± 0.022
